T1: Solute carrier family 22 member 1 (Rattus norvegicus, UniProt Q63089)
T1 sequence (Q63089 whole entry): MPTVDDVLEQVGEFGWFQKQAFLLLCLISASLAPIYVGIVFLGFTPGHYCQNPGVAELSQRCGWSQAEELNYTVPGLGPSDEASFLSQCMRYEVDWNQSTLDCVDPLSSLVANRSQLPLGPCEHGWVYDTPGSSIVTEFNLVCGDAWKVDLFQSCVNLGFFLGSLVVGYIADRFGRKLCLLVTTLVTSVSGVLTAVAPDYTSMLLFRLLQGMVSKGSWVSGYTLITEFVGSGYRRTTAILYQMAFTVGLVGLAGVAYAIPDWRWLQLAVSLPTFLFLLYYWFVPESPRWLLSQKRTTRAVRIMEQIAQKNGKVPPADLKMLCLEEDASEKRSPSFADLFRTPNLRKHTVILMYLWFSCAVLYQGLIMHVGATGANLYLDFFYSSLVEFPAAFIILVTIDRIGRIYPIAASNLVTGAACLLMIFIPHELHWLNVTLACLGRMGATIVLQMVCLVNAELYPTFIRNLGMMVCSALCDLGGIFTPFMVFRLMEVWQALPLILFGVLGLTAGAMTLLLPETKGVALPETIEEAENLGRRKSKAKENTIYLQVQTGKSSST

T2: Solute carrier family 22 member 2 (Rattus norvegicus, UniProt Q9R0W2)
T2 sequence (Q9R0W2 whole entry): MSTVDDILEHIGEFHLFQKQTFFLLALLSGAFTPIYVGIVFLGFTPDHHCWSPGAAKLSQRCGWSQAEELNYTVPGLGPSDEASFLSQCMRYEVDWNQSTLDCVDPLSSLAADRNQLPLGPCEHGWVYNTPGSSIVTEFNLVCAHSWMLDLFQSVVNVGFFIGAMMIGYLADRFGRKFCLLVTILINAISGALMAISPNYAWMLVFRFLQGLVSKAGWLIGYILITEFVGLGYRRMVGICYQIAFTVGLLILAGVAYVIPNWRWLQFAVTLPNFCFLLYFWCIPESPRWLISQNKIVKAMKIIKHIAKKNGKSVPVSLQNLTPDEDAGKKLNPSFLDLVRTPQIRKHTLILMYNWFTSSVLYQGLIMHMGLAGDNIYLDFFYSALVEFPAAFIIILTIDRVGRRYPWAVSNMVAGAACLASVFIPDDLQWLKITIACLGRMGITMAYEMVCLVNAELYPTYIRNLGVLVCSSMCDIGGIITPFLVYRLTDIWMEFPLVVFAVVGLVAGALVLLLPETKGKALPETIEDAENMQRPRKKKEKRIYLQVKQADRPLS

T3: Solute carrier family 22 member 3 (Homo sapiens, UniProt O75751)
T3 sequence (O75751 whole entry): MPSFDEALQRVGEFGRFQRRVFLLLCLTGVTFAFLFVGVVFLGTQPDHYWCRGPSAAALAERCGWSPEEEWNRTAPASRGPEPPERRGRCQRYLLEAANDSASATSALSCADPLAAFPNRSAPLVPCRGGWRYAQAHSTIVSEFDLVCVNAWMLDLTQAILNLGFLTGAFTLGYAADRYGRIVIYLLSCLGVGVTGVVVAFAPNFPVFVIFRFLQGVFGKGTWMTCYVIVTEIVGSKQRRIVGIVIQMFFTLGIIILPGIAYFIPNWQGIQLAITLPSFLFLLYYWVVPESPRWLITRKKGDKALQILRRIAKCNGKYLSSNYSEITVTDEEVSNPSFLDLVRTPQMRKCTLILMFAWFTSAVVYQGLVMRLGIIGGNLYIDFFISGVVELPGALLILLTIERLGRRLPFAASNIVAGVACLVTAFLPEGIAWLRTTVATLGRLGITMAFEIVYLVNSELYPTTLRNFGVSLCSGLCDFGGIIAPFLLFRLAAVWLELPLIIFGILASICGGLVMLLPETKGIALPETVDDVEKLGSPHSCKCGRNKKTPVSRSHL

B1: Solute carrier family 22 member 2 (Rattus norvegicus) (protein)
chain: T2 sequence (Q9R0W2 whole entry)

Tests used:
[1] = molecular target: T1, Solute carrier family 22 member 1; test: TP_TRANSPORTER: inhibition of MPP+ uptake in OCT1-expressing HEK293 cells
[2] = molecular target: T2, Solute carrier family 22 member 2; test: TP_TRANSPORTER: inhibition of MPP+ uptake in OCT2-expressing HEK293 cells; format: functional, cell-based
[3] = molecular target: T3, Solute carrier family 22 member 3; test: TP_TRANSPORTER: inhibition of MPP+ uptake in OCT3-expressing HEK293 cells
[4] = molecular target: T2, Solute carrier family 22 member 2; test: (§1) TP_TRANSPORTER: uptake in OCT2-expressing HEK293 cells; format: functional, cell-based; conditions: human
[5] = substrate: N=C(N)N; test: as §1; format: functional, cell-based
[6] = substrate: C[n+]1ccc(-c2ccccc2)cc1; test: as §1; format: functional, cell-based

Molecule | Ki [2] [µM] | Activity [4] | other results
NCCc1c[nH]cn1 [HISTAMINE] | 390 |  | Ki [1]: 1400 µM; Ki [3]: 140 µM
CN1CC(=O)NC1=N [CREATININE] |  | substrate [+] | 
N=C(N)N [GUANIDINE] | 280 |  | 
CC[N+](CC)(CC)CC [TETRYLAMMONIUM] |  | substrate [+] | 
B1 |  |  | Km [5]: 730 µM; Km [6]: 9.4 µM
